Source: PMC8864869, “A short peptide derived from pigment epithelial-derived factor exhibits an angioinhibitory effect” (BMC Ophthalmology, 2022)
Where no end group is shown, it is not given here.

Experiments:
RPMI8226 cells [1] = assay type: cell-based, human; conditions: for MTT value, VEGF-induced RPMI8226 cell proliferation: 10 ng/ml VEGF + 25 μM peptide, serum-free medium, solvent-treated/untreated cells set as 100%, three independent experiments
Experimental: Human multiple myeloma cells, RPMI8226 were purchased from Bioresource Collection and Research Center (Hsinchu, Taiwan). Cells were cultivated in RPMI1640 medium supplemented with 10% FBS, 50 μg/ml penicillin, 50 μg/ml streptomycin, and 2 mM L-glutamine at 37 °C in a 5% CO2 atmosphere. Cell viability was determined by an MTT assay. […] MTT stock solution added to medium alone was included as a negative control. Aliquots (450 μl) from each sample were transferred to a new well of a 48-well culture plate, 100 μl DMSO added with thorough mixing, and allowed to react at 37 °C for 20 min before reading the absorbance at 570 nm.

HUVECs [2] = assay: Annexin V-FITC apoptosis assay in HUVECs; assay type: cell-based, human; conditions: 0.5% FBS, 16 h
Experimental: (§1) Cells were grown in Medium 200 with LSGS (supplement contains 1.9% fetal bovine serum, 3 ng/ml bFGF, 10 μg/ml heparin, 1 μg/ml hydrocortisone, and 10 ng/ml EGF). Culture plates were coated with 2% gelatin. Cells (passages 4–8) were cultured at 37 °C in a humidified atmosphere of 5% CO2. For peptide treatment, HUVECs were cultured in low serum (0.5% FBS) medium containing 20 ng/ml VEGF and 7-mer peptide (20 μM, unless otherwise specified).
(§2) Cell apoptosis was examined using a TACS annexin V-FITC kit according to the manufacturer’s instructions for in situ staining. The cell numbers were monitored by counterstaining with Hoechst 33342. Afterward, apoptosis was examined and photographed by a Zeiss epifluorescence microscope (× 100, 10 fields/sample). Images were recorded on Zeiss software.
(§3) The experiment was repeated three times. Magnification is × 40. b The 7-mer induces HUVEC apoptosis in the presence of VEGF. Cell apoptosis was analyzed using the Annexin V-FITC Apoptosis Detection kit according to the in situ staining protocol after treatment for 16 h. Double staining with an annexin V-FITC and the fluorescent dye Hoechst 33342 was used to visualize the apoptotic cells (green) and nuclei (blue), respectively. A representative result of four independent experiments is shown. The percentages of apoptotic cells were quantified. ^aP < 0.005 versus VEGF-treated cells

RPMI8226 cells [3] = assay: Annexin V-FITC/PI double-staining apoptosis assay in RPMI8226 cells; assay type: cell-based, human
Experimental: as §2
Fig. 2 The 34-mer and 7-mer induce apoptosis of RPMI8226 cells. a Fluorescence microscopy of annexin V-FITC/PI double staining. Treatment of RPMI8226 cells was as described in Fig. 1. Apoptosis was determined by annexin V-FITC staining (green dots) and double stained with propidium iodide (red dots). A representative of three independent experiments is shown. b The percentage of apoptotic cells was quantified by dividing the number of annexin V-positive cells by the total number of cells counted by phase-contrast light microscopy. Control peptide indicates cells were treated with the 5-mer. Histograms show means ± SD. ^aP < 0.005 versus peptide solvent-treated cells. ^bP < 0.0002 versus VEGF-treated cells. ^cP < 0.001 versus 34-mer-treated cells
Fig. 3 The 7-mer induces JNK signaling to trigger RPMI8226 cell apoptosis. 3 × 10^5 cells were serum starved for 24 h and then exposed to 10 ng/ml VEGF and 25 μM 7-mer for the indicated time periods. a Western blotting was performed to detect the active phosphorylated forms of JNK (p-JNK) and p38 MAPK (p-p38), shown in the upper panels. Antibodies were then stripped and the blots were re-incubated with anti-JNK and anti-p38 MAPK antibodies (lower panels), respectively, to detect the levels of total JNK and p38 MAPK. b Densitometric analyses from three independent experiments are shown. c Cell were pretreated with 10 μM SP600125 or SB203580 for 10 min and then treated as described above for 24 h and apoptosis was quantified using the annexin V-FITC apoptosis detection kit. *P < 0.0001 versus 7-mer-treated cells

HUVECs [4] = assay: Endothelial cell capillary-like tube formation assay; assay type: cell-based, human; conditions: 20 ng/ml VEGF, 10 μM 7-mer, matrigel, 0.5% FBS, 6 h
Experimental: as §1
Growth factor-reduced matrigel was pipetted into pre-chilled 24-well plates (150 μl matrigel per well) and polymerized for 45 min at 37 °C. HUVECs (4 × 10^4 per well) in low serum (0.5% FBS) medium were treated with 20 ng/ml VEGF and 7-mer (10 μM) in matrigel coated plates. After 6 h of incubation, tubular structures were photographed. Images were captured using a Cannon camera on a Zeiss inverted microscope with magnification × 40.
as §3, with “A representative result of four independent experiments is shown.” left out

[5] = cited from earlier work; for anti-angiogenic and antitumor activities of human PEDF: previous studies
Source text: Pigment epithelial-derived factor (PEDF) was initially identified in the culture supernatant of human fetal retinal pigment epithelial cells, with the ability to promote neuronal differentiation of retinoblastoma Y79 cells. […] Presently, full-length PEDF is considered to be less suitable as an anti-angiogenic agent than PEDF-derived active fragments because of several issues, including antigenicity, s ... || Identification of angioinhibitory peptides derived from PEDF may be a promising strategy for improving the treatment of angiogenesis-related diseases. […] Here, we found for the first time that the 7-mer peptide (D64-S70), representing a minimal region within PEDF, reproduced the anti-VEGF effect, comparab ...

[6] = tested on: p53, Bax, p21, cleaved caspase-3; assay: Western blot of p53, Bax, p21 and cleaved caspase-3 in RPMI8226 cells; assay type: cell-based, human; conditions: 10 μM inhibitor pretreatment, then VEGF + 25 μM 7-mer
Source text: Cell lysis and SDS–PAGE were as described previously. Antibodies used in this study were for active p38 MAPK and active JNK (Promega, Madison, WI), p38 MAPK/SAPK2, JNK (Upstate Biotechnology, Lake Placid, NY), p53 (Chemicon, Temecula, CA), bax, p21, cleaved caspase-3 and β-actin (Abcam Ltd., Cambridge, UK). Proteins of interest were detected using the appropriate IgG-horseradish peroxidase-linked secondary antibody (Santa Cruz Biotechnology) and enhanced chemiluminescence reagent (Amersham, Arlington Heights, IL). X-ray films were scanned on a model GS-700 Imaging Densitometer (Bio-Rad, Hercules, CA) and analyzed with Labworks 4.0 software. For quantification, blots from at least three independent experiments were used.
Fig. 4 The 7-mer induces JNK signaling to trigger p53/bax/p21^Waf1 expression in RPMI8226 cells. a and b Cell treatments were as described in Fig. 3. Cell lysates were then prepared for western blot analysis of p53, Bax, and p21. Representative blots and densitometric analyses from three independent experiments are shown. ^*P < 0.001 versus 7-mer-treated cells

In the case of “7-mer L65 alanine substitution: 7-mer with single alanine substitution of L65 (DAYRVRS; ends and bridges not checked; UniProt P36955 64-70, looked up, variant L65A)”, the “MTT value, VEGF-induced RPMI8226 cell proliferation” value (RPMI8226 cells [1]; 24 h, mean ± SD) is reported as 74 ± 0.9%.

In the case of VEGF, the “apoptotic HUVECs, VEGF-treated only” value (HUVECs [2]; 20 ng/ml VEGF) is reported as 6.3 ± 1.6%, the “apoptotic (annexin V+) RPMI8226 cells with VEGF alone” value (RPMI8226 cells [3]; 10 ng/ml VEGF, serum-free, serum deprivation alone 14.0 ± 1.7%) is reported as 6.5 ± 1.1% and the “MTT value, RPMI8226 cells with VEGF alone” value (RPMI8226 cells [1]; 10 ng/ml VEGF without peptide, 24 h, untreated cells set as 100%, mean ± SD) is reported as 120 ± 3.9%.

For “7-mer D64 alanine substitution: 7-mer with single alanine substitution of D64 (ALYRVRS; ends and bridges not checked; UniProt P36955 64-70, looked up, variant D64A)”, the “MTT value, VEGF-induced RPMI8226 cell proliferation” value (RPMI8226 cells [1]; 24 h, mean ± SD) was 69 ± 3.5%.

In the case of “34-mer: PEDF amino acid positions Asp44-Asn77, N-acetylated, C-amidated (Ac-DPFFKVPVNKLAAAVSNFGYDLYRVRSSTSPTTN-NH2; UniProt P36955 44-77, looked up, fragment) [reference compound]”, the “apoptotic HUVECs (annexin V-FITC)” value (HUVECs [2]; 20 ng/ml VEGF + peptide (20 μM), four independent experiments) is reported as 20.1 ± 4.4%, the “apoptotic (annexin V+) RPMI8226 cells” value (RPMI8226 cells [3]; 10 ng/ml VEGF + 25 μM peptide, 24 h, serum-free, early + late apoptosis, mean ± SD, three independent experiments) is reported as 25.1 ± 2.2% and the “VEGF-stimulated tube-like network of HUVECs” value (HUVECs [4]) is reported as “marked decrease of the VEGF-stimulated tube-like network”. For the same molecule, the “cytotoxic effect on RPMI8226 cells in the absence of VEGF” value (RPMI8226 cells [1]) was “neither peptide had a significant cytotoxic effect”, the “MTT value, VEGF-induced RPMI8226 cell proliferation” value (RPMI8226 cells [1]; 24 h, mean ± SD) was 84 ± 4.0% and the “dose dependence of cell viability of VEGF-treated RPMI8226 cells” value (RPMI8226 cells [1]; 1, 5, 10 and 25 μM peptide with VEGF, MTT) was “cell viability decreased significantly with the 34-mer treatment at 10 and 25 μM, but not at 1 and 5 μM”. For the same molecule, the neurotrophic activity [5] was “no neurotrophic activity” and the “anti-angiogenic and antitumor activities of human PEDF” value [5] was “preserve the anti-angiogenic and antitumor activities of human PEDF”.

For “23-mer: PEDF fragment A55-N77 of previous studies (AAAVSNFGYDLYRVRSSTSPTTN; UniProt P36955 55-77, looked up, fragment)”, the “anti-angiogenic and antitumor activities of human PEDF” value [5] is given as “devoid of PEDF activity”.

For Oc1c2ccccc2c2c3c(cccc13)N=N2 [SP600125, reference compound], the “7-mer-induced RPMI8226 cell apoptosis after inhibitor pretreatment” value (RPMI8226 cells [3]; 10 μM inhibitor for 10 min, then 10 ng/ml VEGF + 25 μM 7-mer for 24 h, 7-mer alone 38.6 ± 2.1%) was 11.6 ± 1.5% and the “7-mer-induced increases of p53, bax, p21 and cleaved caspase-3 after inhibitor pretreatment” value [6] was “significantly inhibited”.

With “D64N/L65V double mutant of the 7-mer: 7-mer with D64N/L65V double mutation (NVYRVRS; ends and bridges not checked; UniProt P36955 64-70, looked up, variant D64N L65V)” the “MTT value, VEGF-induced RPMI8226 cell proliferation” value (RPMI8226 cells [1]; 24 h, mean ± SD) was 117 ± 4.1%.

In the case of “18-mer: PEDF fragment Asn60-Asn77 of previous studies (NFGYDLYRVRSSTSPTTN; UniProt P36955 60-77, looked up, fragment)”, the neurotrophic activity [5] is given as “no neurotrophic activity” and the “anti-angiogenic and antitumor activities of human PEDF” value [5] is given as “preserve the anti-angiogenic and antitumor activities of human PEDF”.

B1: PEDF: a 50 kDa secreted glycoprotein (protein, UniProt P36955 20-418, looked up)
Pigment epithelium-derived …: QNPASPPEEGSPDPDSTGALVEEEDPFFKVPVNKLAAAVSNFGYDLYRVRSSTSPTTNVLLSPLSVATALSALSLGAEQRTESIIHRALYYDLISSPDIHGTYKELLDTVTAPQKNLKSASRIVFEKKLRIKSSFVAPLEKSYGTRPRVLTGNPRLDLQEINNWVQAQMKGKLARSTKEIPDEISILLLGVAHFKGQWVTKFDSRKTSLEDFYLDEERTVRVPMMSDPKAVLRYGLDSDLSCKIAQLPLTGSMSIIFFLPLKVTQNLTLIEESLTSEFIHDIDRELKTVQAVLTVPKLKLSYEGEVTKSLQEMKLQSLFDSPDFSKITGKPIKLTQVEHRAGFEWNEDGAGTTPSPGLQPAHLTFPLDYHLNQPFIFVLRDTDTGALLFIGKILDPRGP
For B1, the “MTT value, VEGF-induced RPMI8226 cell proliferation” value (RPMI8226 cells [1]; 24 h, mean ± SD) was 93 ± 3.8%.
